Columns and labels:
[1] = test system: ginsenoside glycosidases from A. niger; experiment: Hydrolysis of ginsenosides with crude ginsenoside glycosidases from A. niger, products measured by TLC; assay type: biochemical, Aspergillus niger
Description: Aspergillus niger FFCCDL-48 g was cultured in a medium containing 1% ginseng extracts and 3% wheat bran extracts at 30° C. for 54 hours. Cells were removed by centrifugation, after which (NH4)2SO4 powder was added to 2000 ml of the cell-free supernatant with stirring to 65% saturation. The solution was stored overnight at 4° C. and precipitated proteins were collected by centrifugation, resuspended in 80 ml of distilled water and dialyzed against 0.01M acetate buffer pH 5. Insolubles were removed by centrifugation, and the solution was adjusted to 200 ml with 0.01 M acetate buffer pH 5. The crude enzyme solution may be used to hydrolyze ginsenosides or to purify the enzymes.
100 mg each of ginsenosides Rb1, Rb2, Rc and Rd and 10 mg of ginsenoside Rg3 were dissolved in separate tubes containing 10 ml of 0.01M acetate buffer pH 5. 10 ml of the crude enzyme solution obtained in 1.1 was added to each tube and allowed to react at 30° C. for 18 hours. Then 10 ml of n-butanol was added to stop the reactions. The products were measured by thin layer chromatography (TLC) (Silica gel 60-F254, Merck; chloroform:methanol:water 70:30:5).
Experiments were carried out to explore the effects of temperature, pH, metal ions and reaction time on the enzyme reaction, in order to further characterize the enzymes.
100 mg of ginsenoside Rb1 was used in a reaction under the conditions as described in 1.2 and the effect of temperature was shown in Table 2.

[2] = test system: ginsenoside glycosidase I; experiment: Hydrolysis of ginsenosides with Fraction 36 (ginsenoside glycosidase I); assay type: biochemical, Aspergillus niger; conditions: Fraction 36; substrates Rb1, Rb2, Rc, Rd 0.5%; Rg3, F2, Rh2, C—K, Rg2 0.05%; pH 5.0, 30° C.
Description: 10 ml of the enzyme solution obtained in 1.1 was subjected to a DEAE-Cellulose DE-52 column (Pharamcia, 1.5×6.7 cm) to absorb the enzyme protein. The column was then eluted with a NaCl gradient (0.06, 0.12, 0.18, 0.24, 0.3, 0.4, 0.5 and 0.6M).
Fractions 36 and 54 from the DEAE-Cellulose column appeared as one dot on a SDS-polyacrylamide gel, representing the purified enzymes.
Fraction 36 which was eluted with 0.12 M NaCl from the DEAE-Cellulose column was lyophilized and appeared as a single dot with a molecular weight of 51,000 Daltons when running on a SDS-polyacrylamide gel.
To observe the differences between the ginsenoside glycosidases of the invention and known exo-cellulases, the ginsenoside glycosidases of the invention were compared with cellulose β-glucosidase (E.C. 3.2.1.21) in two reactions with 0.5% ginsenosides Rb1 or Rd as substrate.

[3] = test system: ginsenoside glycosidases from A. oryzae; experiment: Hydrolysis of ginsenosides with crude ginsenoside glycosidases from A. oryzae, TLC; assay type: biochemical, Aspergillus oryzae; conditions: pH 5.0, 30° C., 18 hours
Description: Aspergillus oryzae FFCCDL-39 g (available from Food Fermentation Culture Collection of Dalian Institute of Light Industry) was cultured with stirring in a medium containing 1% ginseng extracts and 3% wheat bran extracts at 30° C. for 64 hours. Cells were removed by centrifugation, after which (NH4)2SO4 powder was added to 2000 ml of the cell-free supernatant with stirring to 65% saturation. The solution was stored overnight at 4° C. and precipitated proteins were collected by centrifugation, resuspended in 80 ml of distilled water and dialyzed against 0.01M acetate buffer pH 5. Insolubles were removed by centrifugation, and the solution was adjusted to 200 ml with 0.01 M acetate buffer pH 5. The crude enzyme solution may be used to hydrolyze ginsenosides or to purify the enzymes.
Each 100 mg of ginsenosides Rb1, Rb2, Rc Re and Rd and each 10 mg of ginsenoside Rg3 and Rg2 were dissolved in separate tubes containing 10 ml of 0.01M acetate buffer pH 5. 10 ml of the crude enzyme solution obtained as above was added to each tube and allowed to react at 30° C. for 18 hours. Then 10 ml of n-butanol was added to stop the reactions. The products were measured by thin layer chromatography (TLC) (Silica gel 60-F254, Merck; chloroform:methanol:water 70:30:5). […]

[4] = test system: ginsenoside glycosidase I from ginseng plants; experiment: Hydrolysis of ginsenosides with fraction 52 (ginsenoside glycosidase I) from ginseng plant; assay type: biochemical; conditions: Fraction 52; substrate 0.5%; 50° C., pH 5.0, 18 hours
Description: 200 g of fresh ginseng root was cut into pieces and added to 600 ml of 0.02 M acetate buffer pH 5. Supernatant was obtained by filtration after the mixture stand at 40° C. for 2 hours. To the supernatant (NH4)2SO4 was added gradually until 70% saturation and the mixture stand overnight at 4° C. Then protein pellets were collected by centrifugation and redissolved in 15 ml of distilled water. The solution was dialyzed against 0.02 M Tris-HCl pH 7.4. Insolubles were removed by centrifugation and the volume of the supernatant was adjusted to 20 ml.
5 ml of the enzyme solution was subjected to a DEAE-Cellulose DE-25 column (Whatman, 1.4×6.7 cm). The column was eluted with a KCl gradient (0.06, 0.12, 0.18 and 0.24 M) in 0.02 M Tris-HCl pH 7.4. After elution, each fraction was tested for the activity of hydrolyzing ginsenosides. […] Fraction 52 can also hydrolyze the glucosidic bond at the twentieth carbon atom of Rb and Rc to give ginsenoside F2.

[5] = test system: ginsenoside glycosidases from wheat bran; experiment: Hydrolysis of ginsenosides with ginsenoside glycosidases from wheat bran; assay type: biochemical; conditions: 10 ml of 1% ginsenoside substrate, 40° C., 20 hours
Description: 500 g of wheat bran was added to 2500 ml of 0.02 M acetate buffer pH 5 and extracted at 40° C. for 2 hours. 2000 ml of supernatant were obtained by filtration to which (NH4)2SO4 was added gradually with stirring until 70% saturation. The mixture stand at 4° C. overnight. Protein pellets were collected by centrifugation and redissolved in 80 ml of distilled water and dialyzed against 0.02 M acetate buffer pH 5.0. Insolubles were removed by centrifugation and the supernatant was adjusted to a volume of 200 ml to obtain the crude enzyme solution.
10 ml of the enzyme solution was allowed to react with 10 ml of 1% ginsenoside substrate at 40° C. for 20 hours.

## [Pb+2] [Pb^++]
[1]; hydrolysis of Rb1, pH 5.0, 30°C.
  effect of metal ions on the enzyme reaction: inhibit the reaction

## CC(C)=CCC[C@](C)(O[C@@H]1O[C@H](CO[C@@H]2OC[C@H](O)[C@H](O)[C@H]2O)[C@@H](O)[C@H](O)[C@H]1O)[C@H]1CC[C@]2(C)[C@@H]1[C@H](O)C[C@@H]1[C@@]3(C)CC[C@H](O[C@@H]4O[C@H](CO)[C@@H](O)[C@H](O)[C@H]4O[C@@H]4O[C@H](CO)[C@@H](O)[C@H](O)[C@H]4O)C(C)(C)[C@@H]3CC[C@]12C [Rb2, ginsenoside Rb2]
[1]; pH 5, 30° C., 18 hours
  Percentage of C—K in the reaction product: 17%
  Percentage of F2 in the reaction product: 57%
  Percentage of Rb2 in the reaction product: 7%
  Percentage of Rd in the reaction product: 13%
  Percentage of Rh2 in the reaction product: 3%
  Percentage of aglycone in the reaction product: 3%
[2]
  Percentage of C—K in the reaction product: 54%
  Percentage of F2 in the reaction product: 35%
  Percentage of Rd in the reaction product: 9%
  Percentage of Rh2 in the reaction product: 1%
  Percentage of aglycone in the reaction product: 1%
[3]
  Percentage of C—K in the reaction product: 54%
  Percentage of F2 in the reaction product: 35%
  Percentage of Rd in the reaction product: 18%
  Percentage of aglycone in the reaction product: 3%
[4]
  Percentage of F2 in the reaction product: 65%
  Percentage of Rd in the reaction product: 35%
[5]
  Percentage of F2 in the reaction product: 50%
  Percentage of Rd in the reaction product: 45%

## CC(C)=CCC[C@](C)(O[C@@H]1O[C@H](CO[C@@H]2O[C@@H](CO)[C@H](O)[C@H]2O)[C@@H](O)[C@H](O)[C@H]1O)[C@H]1CC[C@]2(C)[C@@H]1[C@H](O)C[C@@H]1[C@@]3(C)CC[C@H](O[C@@H]4O[C@H](CO)[C@@H](O)[C@H](O)[C@H]4O[C@@H]4O[C@H](CO)[C@@H](O)[C@H](O)[C@H]4O)C(C)(C)[C@@H]3CC[C@]12C [Rc, ginsenoside Rc]
[1]; pH 5, 30° C., 18 hours
  Percentage of C—K in the reaction product: 15%
  Percentage of F2 in the reaction product: 58%
  Percentage of Rc in the reaction product: 8%
  Percentage of Rd in the reaction product: 12%
  Percentage of Rh2 in the reaction product: 2%
  Percentage of aglycone in the reaction product: 5%
[2]
  Percentage of C—K in the reaction product: 52%
  Percentage of F2 in the reaction product: 36%
  Percentage of Rd in the reaction product: 8%
  Percentage of Rh2 in the reaction product: 2%
  Percentage of aglycone in the reaction product: 2%
[3]
  Percentage of C—K in the reaction product: 56%
  Percentage of F2 in the reaction product: 30%
  Percentage of Rd in the reaction product: 19%
  Percentage of aglycone in the reaction product: 5%
[4]
  Percentage of F2 in the reaction product: 55%
  Percentage of Rd in the reaction product: 45%
[5]
  Percentage of F2 in the reaction product: 55%
  Percentage of Rd in the reaction product: 43%

## CC(C)=CCC[C@](C)(O[C@@H]1O[C@H](CO)[C@@H](O)[C@H](O)[C@H]1O)[C@H]1CC[C@]2(C)[C@@H]1[C@H](O)C[C@@H]1[C@@]3(C)CC[C@H](O)C(C)(C)[C@@H]3[C@@H](O[C@@H]3O[C@H](CO)[C@@H](O)[C@H](O)[C@H]3O[C@@H]3O[C@@H](C)[C@H](O)[C@@H](O)[C@H]3O)C[C@]12C [Re, ginsenoside Re]
[3]
  Percentage of Re in the reaction product: 20%
  Percentage of Rg1 in the reaction product: 73%
  Percentage of Rh1 in the reaction product: 2%
  Percentage of aglycone in the reaction product: 5%

## CC(C)=CCC[C@](C)(O)[C@H]1CC[C@]2(C)[C@@H]1[C@H](O)C[C@@H]1[C@@]3(C)CC[C@H](O)C(C)(C)[C@@H]3[C@@H](O[C@@H]3O[C@H](CO)[C@@H](O)[C@H](O)[C@H]3O[C@@H]3O[C@@H](C)[C@H](O)[C@@H](O)[C@H]3O)C[C@]12C [Rg2, ginsenoside Rg2]
[2]
  Percentage of Rg2 in the reaction product: 100%
[3]
  Percentage of Rg2 in the reaction product: 32%
  Percentage of Rh1 in the reaction product: 75%
  Percentage of aglycone in the reaction product: 3%

## CC(C)=CCC[C@](C)(O)[C@H]1CC[C@]2(C)[C@@H]1[C@H](O)C[C@@H]1[C@@]3(C)CC[C@H](O[C@@H]4O[C@H](CO)[C@@H](O)[C@H](O)[C@H]4O[C@@H]4O[C@H](CO)[C@@H](O)[C@H](O)[C@H]4O)C(C)(C)[C@@H]3CC[C@]12C [Rg3, ginsenoside Rg3]
[1]; pH 5, 30° C., 18 hours
  Percentage of Rg3 in the reaction product: 30%
  Percentage of Rh2 in the reaction product: 53%
  Percentage of aglycone in the reaction product: 17%
  conversion rate from Rg3 to Rh2: over 50%
[2]
  Percentage of Rg3 in the reaction product: 40%
  Percentage of Rh2 in the reaction product: 57%
  Percentage of aglycone in the reaction product: 3%
[3]
  Percentage of Rg3 in the reaction product: 45%
  Percentage of Rh2 in the reaction product: 50%
  Percentage of aglycone in the reaction product: 5%

## CC(C)=CCC[C@](C)(O)[C@H]1CC[C@]2(C)[C@@H]1[C@H](O)C[C@@H]1[C@@]3(C)CC[C@H](O[C@@H]4O[C@H](CO)[C@@H](O)[C@H](O)[C@H]4O)C(C)(C)[C@@H]3CC[C@]12C [Rh2, ginsenoside Rh2]
[2]
  Percentage of Rh2 in the reaction product: 89%
  Percentage of aglycone in the reaction product: 10%
